# In PubChem BioAssay (NCI):
#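 Following 48 hours of exposure in 96-well plates, responses at five concentrations were used to interpolate endpoints linearly. Abbreviation: GI50, concentration required for 50% inhibition of growth. The concentration for full growth arrest is given as TGI.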
# Key:
# Assay in all cases: growth of human tumour cells (NCI), 48 h
# SR leukemia = system: SR leukemia
# UACC-62 melanoma = system: UACC-62 melanoma
# MDA-MB-231 breast = system: MDA-MB-231 breast
# RXF 393 renal = system: RXF 393 renal
# SK-MEL-2 melanoma = system: SK-MEL-2 melanoma
# HCT-116 colon = system: HCT-116 colon
# SF-295 CNS = system: SF-295 CNS
# HOP-62 NSCLC = system: HOP-62 NSCLC
# SNB-75 CNS = system: SNB-75 CNS
# SNB-19 CNS = system: SNB-19 CNS
# OVCAR-5 ovarian = system: OVCAR-5 ovarian
# MDA-MB-435 = system: MDA-MB-435
# ACHN renal = system: ACHN renal
# EKVX NSCLC = system: EKVX NSCLC
# HL-60(TB) leukemia = system: HL-60(TB) leukemia
# UO-31 renal = system: UO-31 renal
# NCI-H23 lung = system: NCI-H23 lung
# A549 NSCLC = system: A549 NSCLC
# NCI/ADR-RES ovarian = system: NCI/ADR-RES ovarian
# SK-MEL-28 melanoma = system: SK-MEL-28 melanoma
# T-47D breast = system: T-47D breast
# PC-3 prostate = system: PC-3 prostate
# SK-MEL-5 melanoma = system: SK-MEL-5 melanoma
# SK-OV-3 ovarian = system: SK-OV-3 ovarian
# TK-10 renal = system: TK-10 renal
# 786-0 renal = system: 786-0 renal
# RPMI-8226 leukemia = system: RPMI-8226 leukemia
# CAKI-1 renal = system: CAKI-1 renal
# NCI-H460 lung = system: NCI-H460 lung
# HT29 colon = system: HT29 colon
# COLO 205 colon = system: COLO 205 colon
# NCI-H522 lung = system: NCI-H522 lung
# DU-145 prostate = system: DU-145 prostate
# CCRF-CEM leukemia = system: CCRF-CEM leukemia
# M14 melanoma = system: M14 melanoma
# HCC-2998 colon = system: HCC-2998 colon
# A498 renal = system: A498 renal
# OVCAR-4 ovarian = system: OVCAR-4 ovarian
# BT-549 breast = system: BT-549 breast
# MCF7 breast = system: MCF7 breast
# IGROV1 ovarian = system: IGROV1 ovarian
# MALME-3M melanoma = system: MALME-3M melanoma
# SW-620 colon = system: SW-620 colon
# SF-268 CNS = system: SF-268 CNS
# SN12C renal = system: SN12C renal
# OVCAR-3 ovarian = system: OVCAR-3 ovarian
# KM12 colon = system: KM12 colon
# HCT-15 colon = system: HCT-15 colon
# LOX IMVI melanoma = system: LOX IMVI melanoma
# K-562 leukemia = system: K-562 leukemia
# HS 578T breast = system: HS 578T breast
# UACC-257 melanoma = system: UACC-257 melanoma
# MOLT-4 leukemia = system: MOLT-4 leukemia
# U251 CNS = system: U251 CNS
# SF-539 CNS = system: SF-539 CNS
# HOP-92 NSCLC = system: HOP-92 NSCLC
# OVCAR-8 ovarian = system: OVCAR-8 ovarian
smiles,measurement,setting,value
Cc1oc2nc[nH]c(=O)c2c1C(=O)/C=C/c1ccc(Br)cc1,GI50,SR leukemia,1350 nM
same,TGI,SR leukemia,16.3 µM
same,GI50,UACC-62 melanoma,1330 nM
same,TGI,UACC-62 melanoma,3.03 µM
same,GI50,MDA-MB-231 breast,3.47 µM
same,TGI,MDA-MB-231 breast,17.8 µM
same,GI50,RXF 393 renal,1410 nM
same,TGI,RXF 393 renal,3.22 µM
same,GI50,SK-MEL-2 melanoma,2340 nM
same,TGI,SK-MEL-2 melanoma,7.1 µM
same,GI50,HCT-116 colon,1260 nM
same,TGI,HCT-116 colon,2820 nM
same,GI50,SF-295 CNS,4.22 µM
same,TGI,SF-295 CNS,15 µM
same,GI50,HOP-62 NSCLC,2620 nM
same,TGI,HOP-62 NSCLC,9.73 µM
same,GI50,SNB-75 CNS,1230 nM
same,TGI,SNB-75 CNS,9.62 µM
same,GI50,SNB-19 CNS,1800 nM
same,TGI,SNB-19 CNS,5.44 µM
same,GI50,OVCAR-5 ovarian,2930 nM
same,TGI,OVCAR-5 ovarian,9.32 µM
same,GI50,MDA-MB-435,2000 nM
same,TGI,MDA-MB-435,6.69 µM
same,GI50,ACHN renal,1600 nM
same,TGI,ACHN renal,5.61 µM
same,GI50,EKVX NSCLC,2370 nM
same,TGI,EKVX NSCLC,12.8 µM
same,GI50,HL-60(TB) leukemia,2320 nM
same,TGI,HL-60(TB) leukemia,10.3 µM
same,GI50,UO-31 renal,781 nM
same,TGI,UO-31 renal,7.39 µM
same,GI50,NCI-H23 lung,2070 nM
same,TGI,NCI-H23 lung,7.82 µM
same,GI50,A549 NSCLC,2730 nM
same,TGI,A549 NSCLC,14.2 µM
same,GI50,NCI/ADR-RES ovarian,1840 nM
same,TGI,NCI/ADR-RES ovarian,20.8 µM
same,GI50,SK-MEL-28 melanoma,2390 nM
same,TGI,SK-MEL-28 melanoma,8.3 µM
same,GI50,T-47D breast,1860 nM
same,TGI,T-47D breast,14.2 µM
same,GI50,PC-3 prostate,2360 nM
same,TGI,PC-3 prostate,15.6 µM
same,GI50,SK-MEL-5 melanoma,1560 nM
same,TGI,SK-MEL-5 melanoma,3.27 µM
same,GI50,SK-OV-3 ovarian,4.08 µM
same,TGI,SK-OV-3 ovarian,15.5 µM
same,GI50,TK-10 renal,4.46 µM
same,TGI,TK-10 renal,13.3 µM
same,GI50,786-0 renal,1800 nM
same,TGI,786-0 renal,3.97 µM
same,GI50,RPMI-8226 leukemia,1360 nM
same,TGI,RPMI-8226 leukemia,6.91 µM
same,GI50,CAKI-1 renal,1340 nM
same,TGI,CAKI-1 renal,11.5 µM
same,GI50,NCI-H460 lung,3.25 µM
same,TGI,NCI-H460 lung,11 µM
same,GI50,HT29 colon,2360 nM
same,TGI,HT29 colon,6.3 µM
same,GI50,COLO 205 colon,1700 nM
same,TGI,COLO 205 colon,5.5 µM
same,GI50,NCI-H522 lung,1890 nM
same,TGI,NCI-H522 lung,5.76 µM
same,GI50,DU-145 prostate,2030 nM
same,TGI,DU-145 prostate,7.85 µM
same,GI50,CCRF-CEM leukemia,1010 nM
same,TGI,CCRF-CEM leukemia,30.6 µM
same,GI50,M14 melanoma,2140 nM
same,TGI,M14 melanoma,8.53 µM
same,GI50,HCC-2998 colon,1700 nM
same,TGI,HCC-2998 colon,3.26 µM
same,GI50,A498 renal,2460 nM
same,TGI,A498 renal,6.82 µM
same,GI50,OVCAR-4 ovarian,2510 nM
same,TGI,OVCAR-4 ovarian,13.1 µM
same,GI50,BT-549 breast,1740 nM
same,TGI,BT-549 breast,4.13 µM
same,GI50,MCF7 breast,505 nM
same,TGI,MCF7 breast,11.5 µM
same,GI50,IGROV1 ovarian,1810 nM
same,TGI,IGROV1 ovarian,10.2 µM
same,GI50,MALME-3M melanoma,1890 nM
same,TGI,MALME-3M melanoma,6 µM
same,GI50,SW-620 colon,2160 nM
same,TGI,SW-620 colon,7.09 µM
same,GI50,SF-268 CNS,3.08 µM
same,TGI,SF-268 CNS,17.5 µM
same,GI50,SN12C renal,2950 nM
same,TGI,SN12C renal,11.9 µM
same,GI50,OVCAR-3 ovarian,1850 nM
same,TGI,OVCAR-3 ovarian,5.74 µM
same,GI50,KM12 colon,1510 nM
same,TGI,KM12 colon,3.44 µM
same,GI50,HCT-15 colon,1090 nM
same,TGI,HCT-15 colon,4.96 µM
same,GI50,LOX IMVI melanoma,1030 nM
same,TGI,LOX IMVI melanoma,2430 nM
same,GI50,K-562 leukemia,798 nM
same,TGI,K-562 leukemia,> 100 µM
same,GI50,HS 578T breast,3.49 µM
same,TGI,HS 578T breast,38.9 µM
same,GI50,UACC-257 melanoma,2370 nM
same,TGI,UACC-257 melanoma,11.3 µM
same,GI50,MOLT-4 leukemia,2840 nM
same,TGI,MOLT-4 leukemia,17.9 µM
same,GI50,U251 CNS,1440 nM
same,TGI,U251 CNS,3.17 µM
same,GI50,SF-539 CNS,1730 nM
same,TGI,SF-539 CNS,4.64 µM
same,GI50,HOP-92 NSCLC,1350 nM
same,TGI,HOP-92 NSCLC,6.86 µM
same,GI50,OVCAR-8 ovarian,2080 nM
same,TGI,OVCAR-8 ovarian,88.3 µM
